Experimental data from ChEMBL document CHEMBL1143532 (Bioorg Med Chem Lett, 2005).
pEC50, pKi: −log10 of the molar value.

Assays:
[1] = biological target: T1, Neuronal acetylcholine receptor subunit alpha-7 (Rattus norvegicus, UniProt Q05941); test: Inhibitory constant against [3H]methyllycaconitine binding towards Nicotinic acetylcholine receptor alpha-7 of rat brain hippocampus; type: tissue-based
[2] = biological target: Neuronal acetylcholine receptor; alpha4/beta2 (Homo sapiens, UniProt P17787+P43681); test: Binding affinity towards Nicotinic acetylcholine receptor alpha4-beta2; Not significant; type: protein complex
Chain of Neuronal acetylcholine receptor; alpha4/beta2 (P17787 whole entry): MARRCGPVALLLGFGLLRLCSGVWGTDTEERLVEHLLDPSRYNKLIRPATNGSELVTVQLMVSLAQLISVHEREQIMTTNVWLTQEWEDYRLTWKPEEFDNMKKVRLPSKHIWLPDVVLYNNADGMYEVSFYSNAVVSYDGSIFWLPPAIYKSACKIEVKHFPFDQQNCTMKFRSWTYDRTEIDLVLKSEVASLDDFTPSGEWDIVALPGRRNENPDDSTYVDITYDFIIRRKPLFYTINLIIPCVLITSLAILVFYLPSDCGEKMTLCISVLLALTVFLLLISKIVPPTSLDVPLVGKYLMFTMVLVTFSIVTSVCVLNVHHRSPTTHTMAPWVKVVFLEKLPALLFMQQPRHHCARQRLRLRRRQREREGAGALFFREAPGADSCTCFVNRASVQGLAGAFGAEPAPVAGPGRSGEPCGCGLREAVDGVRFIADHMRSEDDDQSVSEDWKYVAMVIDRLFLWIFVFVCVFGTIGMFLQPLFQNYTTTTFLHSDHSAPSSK
Chain of Neuronal acetylcholine receptor; alpha4/beta2 (P43681 whole entry): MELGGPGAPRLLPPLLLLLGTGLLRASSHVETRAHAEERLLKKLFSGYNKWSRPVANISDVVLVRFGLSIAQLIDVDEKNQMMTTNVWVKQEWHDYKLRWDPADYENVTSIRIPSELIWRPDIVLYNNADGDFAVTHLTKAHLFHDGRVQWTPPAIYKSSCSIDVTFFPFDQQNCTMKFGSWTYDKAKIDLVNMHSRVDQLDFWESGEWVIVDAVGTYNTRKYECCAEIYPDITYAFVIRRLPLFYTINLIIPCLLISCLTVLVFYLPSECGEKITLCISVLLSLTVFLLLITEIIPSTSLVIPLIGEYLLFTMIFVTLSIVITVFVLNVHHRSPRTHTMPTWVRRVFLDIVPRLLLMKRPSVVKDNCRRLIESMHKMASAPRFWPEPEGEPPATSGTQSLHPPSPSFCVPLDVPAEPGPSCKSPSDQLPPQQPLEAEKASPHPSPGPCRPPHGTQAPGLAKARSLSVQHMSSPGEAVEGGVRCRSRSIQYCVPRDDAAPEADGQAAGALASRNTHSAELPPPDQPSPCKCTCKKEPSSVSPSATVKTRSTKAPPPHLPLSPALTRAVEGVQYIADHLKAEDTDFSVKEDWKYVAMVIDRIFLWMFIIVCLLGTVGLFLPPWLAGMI

[3] = biological target: Neuronal acetylcholine receptor subunit alpha-7 (Rattus norvegicus) (UniProt Q05941); test: Intrinsic activity against rat nicotinic acetylcholine alpha-7 subunit expressed in Xenopus oocytes as current activation; type: functional, cell-based; details: Oocyte
Chain of Neuronal acetylcholine receptor subunit alpha-7 (Rattus norvegicus) (Q05941 whole entry): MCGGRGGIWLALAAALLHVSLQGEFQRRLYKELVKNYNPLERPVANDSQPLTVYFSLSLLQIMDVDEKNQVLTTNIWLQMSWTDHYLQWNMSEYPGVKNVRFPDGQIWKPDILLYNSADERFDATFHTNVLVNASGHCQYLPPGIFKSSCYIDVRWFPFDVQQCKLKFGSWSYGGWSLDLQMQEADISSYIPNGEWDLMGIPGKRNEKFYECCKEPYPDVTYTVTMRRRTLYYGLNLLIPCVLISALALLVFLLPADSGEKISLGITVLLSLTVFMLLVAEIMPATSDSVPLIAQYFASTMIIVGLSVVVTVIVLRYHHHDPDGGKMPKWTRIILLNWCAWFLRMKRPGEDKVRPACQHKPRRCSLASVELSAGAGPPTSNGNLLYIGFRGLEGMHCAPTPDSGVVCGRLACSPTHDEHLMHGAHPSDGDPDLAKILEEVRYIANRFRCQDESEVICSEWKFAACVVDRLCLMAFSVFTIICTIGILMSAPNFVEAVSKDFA

[4] = biological target: T1, Neuronal acetylcholine receptor subunit alpha-7; test: Potency against rat nicotinic acetylcholine alpha-7 subunit expressed in Xenopus oocytes as current activation; type: functional, cell-based, Oocyte

T1 sequence (Q05941 whole entry): as above

## O=C(Nc1ccc(Br)cc1)O[C@@H]1C2CCN(CC2)[C@@H]1Cc1cnc2ccccc2c1
[1]
  pKi: 5.00
[2]
  pKi: < 5.00

## O=C(Nc1cccc(F)c1)N[C@@H]1C2CCN(CC2)[C@@H]1Cc1cccnc1
[1]
  pKi: 8.22
[2]
  pKi: < 5.00

## O=C(N[C@@H]1C2CCN(CC2)[C@@H]1Cc1cccnc1)c1c[nH]c2ccccc12
[1]
  pKi: 8.10
[2]
  pKi: < 5.00

## O=C(Nc1ccc(F)cc1)O[C@@H]1C2CCN(CC2)[C@@H]1Cc1cccnc1
[1]
  pKi: 8.22
[2]
  pKi: < 5.00

## O=C(N[C@@H]1C2CCN(CC2)[C@@H]1Cc1cccnc1)c1ccsc1
[1]
  pKi: 6.10
[2]
  pKi: < 5.00

## O=C(N[C@@H]1C2CCN(CC2)[C@@H]1Cc1cccnc1)c1cccc(Br)c1
[1]
  pKi: 7.19
[2]
  pKi: < 5.00

## O=C(NCc1ccc(Br)cc1)N[C@@H]1C2CCN(CC2)[C@@H]1Cc1cccnc1
[1]
  pKi: 6.56
[2]
  pKi: < 5.00

## O=C(Nc1ccc(Br)cc1)O[C@@H]1C2CCN(CC2)[C@@H]1Cc1cncnc1
[1]
  pKi: 7.40
[2]
  pKi: < 5.00

## O=C(NC1CC1c1ccccc1)O[C@@H]1C2CCN(CC2)[C@@H]1Cc1cccnc1 (some centres not stated)
[1]
  pKi: 6.99
[2]
  pKi: < 5.00

## N#Cc1cccc(NC(=O)N[C@@H]2C3CCN(CC3)[C@@H]2Cc2cccnc2)c1
[1]
  pKi: 6.77
[2]
  pKi: < 5.00

## COc1ccc(S(=O)(=O)N[C@@H]2C3CCN(CC3)[C@@H]2Cc2cccnc2)cc1
[1]
  pKi: 5.05
[2]
  pKi: < 5.00

## CN(C)c1ccc(NC(=O)N[C@@H]2C3CCN(CC3)[C@@H]2Cc2cccnc2)cc1
[1]
  pKi: 7.42
[2]
  pKi: < 5.00

## COc1ccncc1C[C@@H]1[C@H](OC(=O)Nc2ccc(Br)cc2)C2CCN1CC2
[1]
  pKi: 7.54
[2]
  pKi: < 5.00

## CC(C)Oc1cncc(C[C@@H]2[C@H](OC(=O)Nc3ccc(Br)cc3)C3CCN2CC3)c1
[1]
  pKi: 5.15
[2]
  pKi: < 5.00

## O=C(Nc1ccc(-c2ccccc2)cc1)O[C@@H]1C2CCN(CC2)[C@@H]1Cc1cccnc1
[1]
  pKi: 6.30
[2]
  pKi: < 5.00

## O=S(=O)(N[C@@H]1C2CCN(CC2)[C@@H]1Cc1cccnc1)c1ccc(Br)cc1
[2]
  pKi: < 5.00

## O=C(Nc1ccccc1)N[C@@H]1C2CCN(CC2)[C@@H]1Cc1cccnc1
[1]
  pKi: 7.80
[2]
  pKi: < 5.00

## O=C(Nc1ccc(Br)cc1)O[C@@H]1C2CCN(CC2)[C@@H]1Cc1cccnc1
[2]
  pKi: < 5.00

## O=C(Nc1ccc(-c2ccccc2)cc1)N[C@@H]1C2CCN(CC2)[C@@H]1Cc1cccnc1
[1]
  pKi: 6.37
[2]
  pKi: < 5.00

## O=C(Nc1ccc(Sc2ccccc2)cc1)OC1CN2CCC1CC2 (configuration not stated)
[1]
  pKi: 7.28
[2]
  pKi: < 5.00

## COc1ccccc1NC(=O)N[C@@H]1C2CCN(CC2)[C@@H]1Cc1cccnc1
[1]
  pKi: 7.52
[2]
  pKi: < 5.00

## O=C(Nc1ccc(Br)cc1)O[C@@H]1C2CCN(CC2)[C@@H]1Cc1ccccc1
[1]
  pKi: 6.08
[2]
  pKi: < 5.00

## O=C(Nc1ccc(Br)cc1)O[C@@H]1C2CCN(CC2)[C@@H]1Cc1ccccn1
[1]
  pKi: < 5.00
[2]
  pKi: < 5.00

## C/C(=C\C(=O)N[C@@H]1C2CCN(CC2)[C@@H]1Cc1cccnc1)c1ccccc1
[1]
  pKi: 7.06
[2]
  pKi: < 5.00

## COc1ccc(C[C@@H]2[C@H](OC(=O)Nc3ccc(Br)cc3)C3CCN2CC3)cc1
[1]
  pKi: < 5.00
[2]
  pKi: < 5.00

## O=S(=O)(Cc1ccccc1)N[C@@H]1C2CCN(CC2)[C@@H]1Cc1cccnc1
[1]
  pKi: 5.05
[2]
  pKi: < 5.00

## O=C(Nc1ccccc1)O[C@@H]1C2CCN(CC2)[C@@H]1Cc1cccnc1
[2]
  pKi: < 5.00

## Cn1cc(C(=O)N[C@@H]2C3CCN(CC3)[C@@H]2Cc2cccnc2)c2ccccc21
[1]
  pKi: 6.28
[2]
  pKi: < 5.00

## COc1cncc(C[C@@H]2[C@H](OC(=O)Nc3ccc(Br)cc3)C3CCN2CC3)c1
[1]
  pKi: 6.84
[2]
  pKi: < 5.00

## O=C(N[C@@H]1C2CCN(CC2)[C@@H]1Cc1cccnc1)c1ccc(Sc2ccccc2)cc1
[2]
  pKi: < 5.00

## NC(=O)Cc1ccc(S(=O)(=O)N[C@@H]2C3CCN(CC3)[C@@H]2Cc2cccnc2)cc1
[1]
  pKi: 6.84
[2]
  pKi: < 5.00

## COc1cccc(NC(=O)N[C@@H]2C3CCN(CC3)[C@@H]2Cc2cccnc2)c1
[1]
  pKi: 7.37
[2]
  pKi: < 5.00

## O=C(Nc1ccc(Oc2ccccc2)cc1)O[C@@H]1C2CCN(CC2)[C@@H]1Cc1cccnc1
[1]
  pKi: 7.30
[2]
  pKi: < 5.00

## O=C(Nc1ccc(Br)cc1)N[C@@H]1C2CCN(CC2)[C@@H]1Cc1cccnc1
[1]
  pKi: 8.05
[2]
  pKi: < 5.00

## O=C(Nc1cccc(C(F)(F)F)c1)N[C@@H]1C2CCN(CC2)[C@@H]1Cc1cccnc1
[1]
  pKi: 7.04
[2]
  pKi: < 5.00

## Cn1cccc1C(=O)N[C@@H]1C2CCN(CC2)[C@@H]1Cc1cccnc1
[1]
  pKi: 6.81
[2]
  pKi: < 5.00

## O=C(Nc1ccc(F)cc1)N[C@@H]1C2CCN(CC2)[C@@H]1Cc1cccnc1
[1]
  pKi: 7.13
[2]
  pKi: < 5.00

## O=C(Nc1ccc(Sc2ccccc2)cc1)O[C@@H]1C2CCN(CC2)[C@@H]1Cc1cccnc1
[1]
  pKi: 8.05
[2]
  pKi: < 5.00

## O=C(N[C@@H]1C2CCN(CC2)[C@@H]1Cc1cccnc1)c1csc(Br)c1
[1]
  pKi: 9.40
[2]
  pKi: < 5.00

## O=C(Nc1ccc(Br)cc1)O[C@@H]1C2CCN(CC2)[C@@H]1Cc1cnccc1Oc1ccccc1
[1]
  pKi: < 5.00
[2]
  pKi: < 5.00

## O=C(Nc1cccc(Br)c1)N[C@@H]1C2CCN(CC2)[C@@H]1Cc1cccnc1
[1]
  pKi: 7.28
[2]
  pKi: < 5.00

## O=C(Nc1ccc(Br)cc1)O[C@@H]1C2CCN(CC2)[C@@H]1Cc1ccc(F)cc1
[1]
  pKi: 6.58
[2]
  pKi: < 5.00

## O=C(N[C@@H]1C2CCN(CC2)[C@@H]1Cc1cccnc1)c1cc2ccccc2o1
[3]
  Imax: 1

## O=C(Nc1ccc(Cl)c(Cl)c1)N[C@@H]1C2CCN(CC2)[C@@H]1Cc1cccnc1
[1]
  pKi: 7.47
[2]
  pKi: < 5.00

## CN(C)c1ccc(C[C@@H]2[C@H](OC(=O)Nc3ccc(Br)cc3)C3CCN2CC3)cc1
[2]
  pKi: < 5.00

## CS(=O)(=O)c1ccc(C[C@@H]2[C@H](OC(=O)Nc3ccc(Br)cc3)C3CCN2CC3)cc1
[1]
  pKi: 5.17
[2]
  pKi: < 5.00

## COc1ccc(NC(=O)N[C@@H]2C3CCN(CC3)[C@@H]2Cc2cccnc2)c(OC)c1
[1]
  pKi: 7.51
[2]
  pKi: < 5.00

## O=C(NCc1ccccc1)O[C@@H]1C2CCN(CC2)[C@@H]1Cc1cccnc1
[1]
  pKi: 6.17
[2]
  pKi: < 5.00

## O=C(Nc1ccc(Oc2ccccc2)cc1)N[C@@H]1C2CCN(CC2)[C@@H]1Cc1cccnc1
[1]
  pKi: 7.80
[2]
  pKi: < 5.00

## O=C(N[C@@H]1C2CCN(CC2)[C@@H]1Cc1cccnc1)c1ccc2ccccc2c1O
[1]
  pKi: 9.00
[2]
  pKi: < 5.00

## O=C(Nc1ccc(Br)cc1)O[C@@H]1C2CCN(CC2)[C@@H]1Cc1ccsc1
[1]
  pKi: 6.27
[2]
  pKi: < 5.00

## O=C(NC1CC1c1ccccc1)N[C@@H]1C2CCN(CC2)[C@@H]1Cc1cccnc1 (some centres not stated)
[2]
  pKi: < 5.00

## O=C(Nc1ccc(Br)cc1)O[C@@H]1C2CCN(CC2)[C@@H]1Cc1ccco1
[1]
  pKi: 6.63
[2]
  pKi: < 5.00

## O=C(Nc1ccccc1)OC1CN2CCC1CC2 (configuration not stated)
[2]
  pKi: < 5.00

## COc1ccc(NC(=O)N[C@@H]2C3CCN(CC3)[C@@H]2Cc2cccnc2)cc1
[1]
  pKi: 7.43
[2]
  pKi: < 5.00

## C/C(=C\c1ccccc1)C(=O)N[C@@H]1C2CCN(CC2)[C@@H]1Cc1cccnc1
[1]
  pKi: 8.30
[2]
  pKi: < 5.00

## O=C(Nc1ccc(Br)cc1)O[C@@H]1C2CCN(CC2)[C@@H]1Cn1ccnc1
[1]
  pKi: 8.00
[2]
  pKi: < 5.00

## O=C(Nc1ccc(Br)cc1)O[C@@H]1C2CCN(CC2)[C@@H]1Cc1cc2ccccc2o1
[1]
  pKi: 5.08
[2]
  pKi: < 5.00

## O=C(Nc1ccc(Br)cc1)OC1CN2CCC1CC2 (configuration not stated)
[2]
  pKi: < 5.00

## CSc1ccc(NC(=O)N[C@@H]2C3CCN(CC3)[C@@H]2Cc2cccnc2)cc1
[1]
  pKi: 8.22
[2]
  pKi: < 5.00

## COc1ccc(NC(=O)O[C@@H]2C3CCN(CC3)[C@@H]2Cc2cccnc2)cc1
[1]
  pKi: 8.30
[2]
  pKi: < 5.00
[3]
  Imax: 0.19
[4]
  pEC50: 6.52

## O=S(=O)(N[C@@H]1C2CCN(CC2)[C@@H]1Cc1cccnc1)c1ccccc1
[1]
  pKi: 6.38
[2]
  pKi: < 5.00
